# From ChEMBL document CHEMBL1147973, “Ligand based virtual screening and biological evaluation of inhibitors of chorismate mutase (Rv1885c) from Mycobacterium tuberculosis H37Rv” (Bioorg Med Chem Lett, 2007)
# Target: T1, Secreted chorismate mutase (Mycobacterium tuberculosis, UniProt P9WIB9)
# T1 sequence (P9WIB9 whole entry): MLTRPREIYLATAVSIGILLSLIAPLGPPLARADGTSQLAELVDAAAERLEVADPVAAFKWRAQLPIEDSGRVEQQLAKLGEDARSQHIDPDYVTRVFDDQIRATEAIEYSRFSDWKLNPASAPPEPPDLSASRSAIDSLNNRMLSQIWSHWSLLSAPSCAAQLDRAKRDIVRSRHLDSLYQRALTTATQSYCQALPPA
# Assay: Inhibition of chorismate mutase in Mycobacterium tuberculosis H37Rv strain
row,Structure (SMILES),Ki [µM]
1,CC(C)CC(NC(=O)C1CSC(c2ccccc2)N1C(=O)OC(C)(C)C)C(=O)O (centres undefined),21.1
2,COc1ccc(CCNc2c([N+](=O)[O-])cc(C(=O)O)cc2S(N)(=O)=O)cc1OC,5.7
3,COc1cc(/C=C(\C(=O)O)c2ccc(Cl)cc2)c([N+](=O)[O-])cc1OC,17.7
4,CNc1ccc(C(=O)OC)cc1[N+](=O)[O-],28.8
